Where a name gives a salt, the structure may show the parent alone.
What was measured:
LPAR1 [1] = biological target: T1, LPAR1 (Homo sapiens (Human), UniProt Q92633); experiment: LPAR1 Calcium Flux Assay; assay type: cell-based; conditions: U937 cells overexpressing human LPAR1, LPA-stimulated calcium, FLIPR
Protocol: LPAR1 Calcium Flux Assays
(§1) A cDNA encoding the human LPAR1 receptor is synthesized and cloned into pDNA3 expression plasmid. The plasmid is transfected in U937 cells using Lipofectamine 2000 (Invitrogen Corp., USA). Clones stably expressing human LPAR1 are selected using puromycin and identified as cells that show Ca-influx in response to LPA.
U937 cells overexpressing human LPAR1 are seeded at 100,000 cells per well in a 96-well fibronectin (10 ug/ml) coated plate in 60 μl of assay buffer (HBSS containing 20 mM HEPES and 0.2% BSA) and then incubated for 60 minutes. Then 50 μl of a calcium indicator dye (Fluo-4 NW, Molecular Probes) are added to each well and incubation continued for 30 minutes at 37° C. and then 30 minutes at room temperature. 50 μl of test compounds in 4% DMSO are added to the cells and incubation continued at room temperature for 40 minutes. Cells are the stimulated by the addition of 50 μl of 128 nM LPA and intracellular calcium is measured using the FLIPR TETRA (Molecular Devices). IC50 values are determined using “Genedata Screener” analysis tool.
Target sequence in this assay (Q92633 whole entry): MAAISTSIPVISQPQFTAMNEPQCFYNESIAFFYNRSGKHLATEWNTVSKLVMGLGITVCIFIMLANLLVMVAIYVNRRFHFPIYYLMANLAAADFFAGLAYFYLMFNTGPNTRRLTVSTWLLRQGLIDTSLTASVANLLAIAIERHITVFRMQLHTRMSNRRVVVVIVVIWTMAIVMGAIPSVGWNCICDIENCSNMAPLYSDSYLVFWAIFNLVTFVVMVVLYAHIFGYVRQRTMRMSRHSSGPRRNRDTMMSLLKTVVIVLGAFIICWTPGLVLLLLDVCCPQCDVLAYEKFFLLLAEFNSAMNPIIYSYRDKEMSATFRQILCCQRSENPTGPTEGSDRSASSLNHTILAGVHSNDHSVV

[2] = system: Human hepatic stellate cell line LX-2; experiment: Calcium Influx of Human Hepatic Stellate Cells (LX-2); assay type: cell-based; conditions: LX-2 cells, LPA-stimulated calcium influx
Protocol: Calcium Influx of Human Hepatic Stellate Cells (LX-2)
Human hepatic stellate cell line LX-2 is purchased from EMD Millpore. LX-2 cells are seeded at 20,000-40,000 cells per well in a 96-well poly-D-lysine coated plate one day before the assay. Prior to the assay, the cells are washed once with assay buffer (HBSS containing 20 mM HEPES and 0.2% BSA) and then incubated in 50 μl of assay buffer for 60 minutes. Then 50 μl of a calcium indicator dye (Fluo-4 NW, Molecular Probes) are added to each well and incubation is continued for 30 minutes at 37° C. and then 30 minutes at room temperature. 50 μl of test compounds in 4% DMSO are added to the cells and incubation is continued at room temperature for 40 minutes. Cells are stimulated by the addition of 50 μl of 128 nM LPA and intracellular calcium is measured using the FLIPR TETRA (Molecular Devices). IC50 values are determined using “Genedata Screener” analysis tool.

human LPAR3 = human LPAR3 (Homo sapiens (Human), UniProt Q9UBY5); experiment: LPAR3 Calcium Flux Assay; assay type: cell-based; conditions: U2OS cells overexpressing human LPAR3, LPA-stimulated calcium, FLIPR
Protocol: LPAR3 Calcium Flux Assays
as §1, with “LPAR3” for “LPAR1”, “U2OS” for “U937”, “neomycin” for “puromycin”
U2OS cells overexpressing human LPAR3 are seeded at 20,000-40,000 cells per well in a 96-well poly-D-lysine coated plate one day before the assay. Prior to the assay, the cells are washed once with assay buffer (HBSS containing 20 mM HEPES and 0.2% BSA) and then incubated in 50 μl of assay buffer for 60 minutes. Then 50 μl of a calcium indicator dye (Fluo-4 NW, Molecular Probes) are added to each well and incubation is continued for 30 minutes at 37° C. and then 30 minutes at room temperature. 50 μl of test compounds in 4% DMSO are added to the cells and incubation continued at room temperature for 40 minutes. Cells are stimulated by the addition of 50 μl of 128 nM LPA and intracellular calcium is measured using the FLIPR TETRA (Molecular Devices). IC50 values are determined using “Genedata Screener” analysis tool.

LPAR1 [3] = biological target: T1, LPAR1; experiment: LPAR1 Membrane Binding Assay; conditions: membrane containing LPAR1, radio labeled ligand, SPA
Protocol: LPAR1 Membrane Binding Assay
The ability of a compound to inhibit binding of a ligand (1-(4′-(4-(((benzyloxy)carbonyl)amino)-3-methylisoxazol-5-yl)-[1,1′-biphenyl]-4-yl)cyclopropane-1-carboxylic acid) to LPAR1 is assessed via a membrane binding assay. Membrane containing LPAR1 was purchased from Cerep (Cat. No. 290312RB). Prior to the assay, membrane is thawed and homogenized for 15 seconds. 50 μl of test compounds and 50 μl of radio labeled ligand are added to the 96-well plates and then 50 of μl membrane (50-400 ug/ml) are added. Next, 50 μl of SPA PVT WGA beads are added (1-5 mg/ml) and the plates are sealed and incubated at room temperate for 5 minutes. Radio activity is measured by Beta Counter and IC50 values are determined using “Genedata Screener” analysis tool.
Target sequence in this assay (Q92633 whole entry, species assumed): as the sequence (Q92633 whole entry) above

Sequence of human LPAR3 (Q9UBY5 whole entry): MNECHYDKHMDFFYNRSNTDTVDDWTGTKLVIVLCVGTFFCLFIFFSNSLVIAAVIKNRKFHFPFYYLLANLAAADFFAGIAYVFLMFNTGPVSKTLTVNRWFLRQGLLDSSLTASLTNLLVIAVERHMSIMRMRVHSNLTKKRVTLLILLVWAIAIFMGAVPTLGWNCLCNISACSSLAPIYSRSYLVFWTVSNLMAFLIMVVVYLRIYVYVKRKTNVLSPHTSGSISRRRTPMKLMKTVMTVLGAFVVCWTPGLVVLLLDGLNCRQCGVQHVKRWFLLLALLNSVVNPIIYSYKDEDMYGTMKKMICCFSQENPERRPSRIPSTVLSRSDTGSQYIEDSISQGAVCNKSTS

Row | IC50 (LPAR1 [1]) [µM] | IC50 [2] [µM] | IC50 (human LPAR3) [µM] | Ki (LPAR1 [3]) [µM] | Compound
1 | 0.0458 | 0.0132 | > 10 | – | COCc1cc(C2(C(=O)O)CC2)ccc1-c1ccc(-c2cnn(C)c2Nc2cncc(C(C)C)n2)nc1 [Example 14, 1-[4-[6-[5-[(6-isopropylpyrazin-2-yl)amino]-1-methyl-pyrazol-4-yl]-3-pyridyl]-3-(methoxymethyl)phenyl]cyclopropanecarboxylic Acid; Hydrochloride]
2 | 0.0244 | 0.0144 | 4.28 | 0.0409 | Cn1ncc(-c2ccc(-c3ccc(C4(C(=O)O)CC4)cc3)cn2)c1Nc1cncc(C(C)(F)F)n1 [Example 12, 1-[4-[6-[5-[[6-(1,1-difluoroethyl)pyrazin-2-yl]amino]-1-methyl-pyrazol-4-yl]-3-pyridyl]phenyl]cyclopropanecarboxylic Acid; Hydrochloride]
3 | 0.0293 | 0.0182 | 4.62 | 0.0538 | CC(C)c1cncc(Nc2c(-c3ccc(-c4ccc(C5(C(=O)O)CC5)cc4C#N)cn3)cnn2C)n1 [Example 16, 1-[3-cyano-4-[6-[5-[(6-isopropylpyrazin-2-yl)amino]-1-methyl-pyrazol-4-yl]-3-pyridyl]phenyl]cyclopropanecarboxylic Acid; Hydrochloride]
4 | 0.044 | 0.0105 | 0.804 | 0.028 | Cn1ncc(-c2ccc(-c3ccc(C4(C(=O)O)CC4)cc3)cn2)c1Nc1cncc(C(C)(C)F)n1 [Example 13, 1-[4-[6-[5-[[6-(1-fluoro-1-methyl-ethyl)pyrazin-2-yl]amino]-1-methyl-pyrazol-4-yl]-3-pyridyl]phenyl]cyclopropanecarboxylic Acid; Hydrochloride]
5 | 0.122 | 0.0605 | 5.27 | 0.115 | COC(C)(C)c1cncc(Nc2c(-c3ccc(-c4ccc(C5(C(=O)O)CC5)cc4)cn3)cnn2C)n1 [Example 6, 1-[4-[6-[5-[[6-(1-methoxy-1-methyl-ethyl)pyrazin-2-yl]amino]-1-methyl-pyrazol-4-yl]-3-pyridyl]phenyl]cyclopropanecarboxylic Acid; Hydrochloride]
6 | 0.00986 | 0.00541 | 4.42 | 0.0125 | Cn1ncc(-c2ccc(-c3ccc(C4(C(=O)O)CC4)cc3)cn2)c1Nc1cncc(OC2CC2)n1 [Example 10, 1-[4-[6-[5-[[6-(cyclopropoxy)pyrazin-2-yl]amino]-1-methyl-pyrazol-4-yl]-3-pyridyl]phenyl]cyclopropanecarboxylic Acid]
7 | 0.00861 | 0.0038 | 2.48 | 0.0442 | Cn1ncc(-c2ncc(-c3ccc(C4(C(=O)O)CC4)cc3)cc2F)c1Nc1cncc(OC2CC2)n1 [Example 3, 1-[4-[6-[5-[[6-(cyclopropoxy)pyrazin-2-yl]amino]-1-methyl-pyrazol-4-yl]-5-fluoro-3-pyridyl]phenyl]cyclopropanecarboxylic Acid; Hydrochloride]
8 | 0.0881 | 0.0163 | 2.4 | – | CC(C)c1cncc(Nc2c(-c3cnc(-c4ccc(C5(C(=O)O)CC5)cc4)cn3)cnn2C)n1 [Example 19, 1-[4-[5-[5-[(6-isopropylpyrazin-2-yl)amino]-1-methyl-pyrazol-4-yl]pyrazin-2-yl]phenyl]cyclopropanecarboxylic Acid; Hydrochloride]
9 | 0.0179 | 0.0105 | > 10 | – | Cn1ncc(-c2ccc(-c3ccc(C4(C(=O)O)CC4)c(C#N)c3)cn2)c1Nc1cncc(OC2CC2)n1 [Example 9, 1-[2-cyano-4-[6-[5-[[6-(cyclopropoxy)pyrazin-2-yl]amino]-1-methyl-pyrazol-4-yl]-3-pyridyl]phenyl]cyclopropanecarboxylic Acid; Hydrochloride]
10 | 0.0111 | 0.01 | 0.495 | 0.0346 | CC(C)Oc1cncc(Nc2c(-c3ncc(-c4ccc(C5(C(=O)O)CC5)cc4)cc3F)cnn2C)n1 [Example 11, 1-[4-[5-fluoro-6-[5-[(6-isopropoxypyrazin-2-yl)amino]-1-methyl-pyrazol-4-yl]-3-pyridyl]phenyl]cyclopropanecarboxylic Acid; Hydrochloride]
11 | 0.048 | 0.0153 | 2.76 | 0.0462 | CC(C)c1cncc(Nc2c(-c3ccc(-c4ccc(C5(C(=O)O)CC5)cn4)cn3)cnn2C)n1 [Example 24, 1-[6-[6-[5-[(6-isopropylpyrazin-2-yl)amino]-1-methyl-pyrazol-4-yl]-3-pyridyl]-3-pyridyl]cyclopropanecarboxylic Acid; Dihydrochloride]
12 | – | 0.00713 | – | – | Cn1ncc(-c2ccc(-c3ccc(C4(C(=O)O)CC4)c(C(F)(F)F)c3)cn2)c1Nc1cncc(OC2CC2)n1 [Example 8, 1-[4-[6-[5-[[6-(cyclopropoxy)pyrazin-2-yl]amino]-1-methyl-pyrazol-4-yl]-3-pyridyl]-2-(trifluoromethyl)phenyl]cyclopropanecarboxylic Acid; Hydrochloride]
13 | 0.0429 | 0.0194 | > 10 | 0.0948 | CC(C)c1cncc(Nc2c(-c3ccc(-c4ccc(C5(C(=O)O)CC5)cc4CC#N)cn3)cnn2C)n1 [Example 15, 1-[3-(cyanomethyl)-4-[6-[5-[(6-isopropylpyrazin-2-yl)amino]-1-methyl-pyrazol-4-yl]-3-pyridyl]phenyl]cyclopropanecarboxylic Acid; Hydrochloride]
14 | 0.0271 | 0.0163 | 1.05 | 0.0723 | Cc1cc(-c2ccc(-c3cnn(C)c3Nc3cncc(OC(C)C)n3)nc2)ccc1C1(C(=O)O)CC1 [Example 7, 1-[4-[6-[5-[(6-isopropoxypyrazin-2-yl)amino]-1-methyl-pyrazol-4-yl]-3-pyridyl]-2-methyl-phenyl]cyclopropanecarboxylic Acid; Hydrochloride]

Row | Compound | IC50 (LPAR1 [1]) [µM] | IC50 [2] [µM] | IC50 (human LPAR3) [µM] | Ki (LPAR1 [3]) [µM]
15 | Cn1ncc(-c2ccc(-c3ccc(C4(C(=O)O)CC4)cc3)cn2)c1Nc1cncc(OC2CC(F)(F)C2)n1 [Example 5, 1-[4-[6-[5-[[6-(3,3-difluorocyclobutoxy)pyrazin-2-yl]amino]-1-methyl-pyrazol-4-yl]-3-pyridyl]phenyl]cyclopropanecarboxylic Acid] | 0.0269 | 0.0171 | 0.0496 | 0.0514
16 | Cn1ncc(-c2ccc(-c3ccc(C4(C(=O)O)CC4)cc3)cn2)c1Nc1cncc(OC2CCC2)n1 [Example 2, 1-[4-[6-[5-[[6-(cyclobutoxy)pyrazin-2-yl]amino]-1-methyl-pyrazol-4-yl]-3-pyridyl]phenyl]cyclopropanecarboxylic Acid] | 0.0172 | 0.00922 | 0.327 | –
17 | Cn1ncc(-c2ccc(-c3ccc(C4(C(=O)O)CC4)cc3)cn2)c1Nc1cncc(OC(C)(C)C)n1 [Example 1, 1-[4-[6-[5-[(6-tert-butoxypyrazin-2-yl)amino]-1-methyl-pyrazol-4-yl]-3-pyridyl]phenyl]cyclopropanecarboxylic Acid] | 0.0744 | 0.0372 | 1.33 | –

Reference: patent publication US11365185B2, “Lysophosphatidic acid receptor 1 (LPAR1) inhibitor compounds” (Eli Lilly and Company, priority 2017, dated 2022)
